# According to BindingDB's records for doi:10.1021/jm00001a001 (Biochem Therapeutic, 1995):
# Target: Reverse transcriptase/RNaseH (Human immunodeficiency virus 1, UniProt Q72547)
# Assay: Ability to inhibit the HIV-1 reverse transcriptase in cord blood mononuclear cells.
structure (smiles),measurement,value
"Cc1cn([C@H]2C[C@H](N=[N+]=[N-])[C@@H](CO)O2)c(=O)[nH]c1=O [1-((2R,4S,5S)-4-Azido-5-hydroxymethyl-tetrahydro-furan-2-yl)-5-methyl-1H-pyrimidine-2,4-dione]",IC50,0.03 µM
